# Tests used:
# [1] = molecular target: T1, BRAF (Homo sapiens, UniProt P15056); assay: KinomeScan kinase profiling; format: binding
# T1 construct: purchased Ambit Biosciences (San Diego, Calif.)
# Description: (§2) The selectivity of a given CK1δ, CK1ε or CK1δ-CK1ε inhibitor compound can be determined by testing the compound against a panel of known kinases. An example of such a kinase profiling technology is the “KinomeScan” from Ambit Biosciences in which compounds can be screened for their modulatory activities against more than 200 known kinases.
# [2] = molecular target: T2, BRAF(V600E) (Homo sapiens, UniProt P15056, V600E); assay: KinomeScan kinase profiling; format: binding
# T2 construct: purchased Ambit Biosciences (San Diego, Calif.)
# Description: as §2
# [3] = molecular target: T3, CDK5 (Homo sapiens, UniProt Q00535); assay: KinomeScan kinase profiling; format: binding
# T3 construct: purchased Ambit Biosciences (San Diego, Calif.)
# Description: as §2
# [4] = molecular target: T4, FGFR2 (Homo sapiens, UniProt P21802); assay: KinomeScan kinase profiling; format: binding
# T4 construct: purchased Ambit Biosciences (San Diego, Calif.)
# Description: as §2
# [5] = molecular target: T5, JAK2(Kin.Dom2) (Homo sapiens, UniProt O60674); assay: KinomeScan kinase profiling; format: binding
# T5 construct: JAK2(Kin.Dom2); purchased Ambit Biosciences (San Diego, Calif.)
# Description: as §2
# [6] = molecular target: T6, KIT (Homo sapiens, UniProt P10721); assay: KinomeScan kinase profiling; format: binding
# T6 construct: purchased Ambit Biosciences (San Diego, Calif.)
# Description: as §2
# [7] = molecular target: T7, p38-alpha (Homo sapiens, UniProt Q16539); assay: KinomeScan kinase profiling; format: binding
# T7 construct: purchased Ambit Biosciences (San Diego, Calif.)
# [8] = molecular target: T8, PKAC-alpha (Homo sapiens, UniProt P17612); assay: KinomeScan kinase profiling; format: binding
# T8 construct: purchased Ambit Biosciences (San Diego, Calif.)
# Description: as §2
# [9] = molecular target: T9, PTK6 (Homo sapiens, UniProt Q13882); assay: KinomeScan kinase profiling; format: binding
# T9 construct: purchased Ambit Biosciences
# [10] = tested on: IL-8 production in neutrophils; assay: Neutrophil assay: IL-8 production after stimulation by inflammatory agents; format: cell-based; settings: human neutrophils stimulated by inflammatory agents, FIG. 2
# Description: (§1) Selective CK1δ, CK1ε or CK1δ-CK1ε inhibitors can be tested for their antiinflammatory effects using a variety of in vitro and in vivo tests that are well known in the art. One such in vitro test involves the application of the inhibitor to human neutrophils to observe whether the induction of inflammatory cytokines, such as IL-8, by tumor necrosis factor (TNF) or lipopolysaccharide (LPS) can be reduced. This test is further described in Example 2. An example of an in vivo test, as described in Example 3, is the air pouch model of inflammatory synovitis in mice in which the inhibitors are tested for their blockade of neutrophil influx as well as of inflammatory cytokine accumulation.
# The Histopaque 1077 and 1119 gradient density centrifugation method (Sigma-Aldrich) was used to isolate granulocytes from human blood. The granulocytes were recovered from the 1077/1119 interphase, washed twice with PBS. The red blood cells were lysed with PureGene red cell lysis buffer (Gentra Biosystems). The cells were washed again and resuspended in growth media (RPMI, 10% FBS, β-mercaptoethanol, Pen/Strep/glutamine and sodium pyruvate) at a density of 1 to 5 million per ml. […] The supernatant was analyzed for cytokine production (Luminex human 22-plex assay) and the cells were lysed for RNA production and analysis.
# [11] = tested on: inflammatory synovitis; assay: Air pouch synovitis model; format: in vivo, Balbc/J mice; settings: 1 μg LPS, FIG. 3
# Description: as §1
# Adult Balbc/J mice were purchased from Charles River Labs and housed and utilized according IACUC protocols and standards. The airpouch was inflated on the dorsal surface of each mouse with 3 ml of air, after light anesthesia with CO2/O2 mix. Three days later each pouch was re-inflated with 3 mls of air. After an additional three days, the pouches were injected with vehicle or compound (normally in 0.1% DMSO in PBS) in 1 ml per pouch. After 20 to 30 minutes, each pouch received 1 μg of LPS or control (PBS). The animals were euthanized four to six hours later. The pouches were flushed with 2 ml of PBS, the cells were then collected, counted and normalized for volume recovered. The fluid recovered was analyzed for cytokine production (Luminex Mouse 21-plex assay). The cells were lysed for RNA or protein analysis.
# T6 sequence (P10721 26-976): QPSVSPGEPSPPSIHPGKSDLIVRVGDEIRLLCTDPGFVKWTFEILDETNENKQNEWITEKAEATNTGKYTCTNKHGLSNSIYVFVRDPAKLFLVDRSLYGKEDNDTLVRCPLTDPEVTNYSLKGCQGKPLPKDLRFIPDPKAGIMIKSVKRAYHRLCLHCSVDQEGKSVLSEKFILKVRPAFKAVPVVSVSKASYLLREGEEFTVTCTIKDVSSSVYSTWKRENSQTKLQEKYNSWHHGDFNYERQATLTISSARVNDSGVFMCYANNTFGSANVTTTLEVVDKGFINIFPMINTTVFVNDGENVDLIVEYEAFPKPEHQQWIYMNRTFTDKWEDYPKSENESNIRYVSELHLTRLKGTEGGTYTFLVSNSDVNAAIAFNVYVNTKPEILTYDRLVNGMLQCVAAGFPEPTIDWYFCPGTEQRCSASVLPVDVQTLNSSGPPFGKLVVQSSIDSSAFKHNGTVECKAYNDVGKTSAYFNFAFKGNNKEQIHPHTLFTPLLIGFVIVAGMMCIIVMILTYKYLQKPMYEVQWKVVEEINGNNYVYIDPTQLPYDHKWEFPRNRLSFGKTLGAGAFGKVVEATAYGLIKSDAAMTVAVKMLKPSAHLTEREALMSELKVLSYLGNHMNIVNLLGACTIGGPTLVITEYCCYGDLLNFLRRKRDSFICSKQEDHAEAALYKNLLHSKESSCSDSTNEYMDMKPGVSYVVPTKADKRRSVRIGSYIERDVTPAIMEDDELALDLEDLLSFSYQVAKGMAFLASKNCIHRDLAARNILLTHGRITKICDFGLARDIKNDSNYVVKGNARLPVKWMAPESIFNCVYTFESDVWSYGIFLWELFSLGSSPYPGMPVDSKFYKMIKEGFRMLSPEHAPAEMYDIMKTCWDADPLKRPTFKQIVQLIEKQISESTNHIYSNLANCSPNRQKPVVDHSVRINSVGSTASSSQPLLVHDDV
# T4 sequence (P21802 22-821): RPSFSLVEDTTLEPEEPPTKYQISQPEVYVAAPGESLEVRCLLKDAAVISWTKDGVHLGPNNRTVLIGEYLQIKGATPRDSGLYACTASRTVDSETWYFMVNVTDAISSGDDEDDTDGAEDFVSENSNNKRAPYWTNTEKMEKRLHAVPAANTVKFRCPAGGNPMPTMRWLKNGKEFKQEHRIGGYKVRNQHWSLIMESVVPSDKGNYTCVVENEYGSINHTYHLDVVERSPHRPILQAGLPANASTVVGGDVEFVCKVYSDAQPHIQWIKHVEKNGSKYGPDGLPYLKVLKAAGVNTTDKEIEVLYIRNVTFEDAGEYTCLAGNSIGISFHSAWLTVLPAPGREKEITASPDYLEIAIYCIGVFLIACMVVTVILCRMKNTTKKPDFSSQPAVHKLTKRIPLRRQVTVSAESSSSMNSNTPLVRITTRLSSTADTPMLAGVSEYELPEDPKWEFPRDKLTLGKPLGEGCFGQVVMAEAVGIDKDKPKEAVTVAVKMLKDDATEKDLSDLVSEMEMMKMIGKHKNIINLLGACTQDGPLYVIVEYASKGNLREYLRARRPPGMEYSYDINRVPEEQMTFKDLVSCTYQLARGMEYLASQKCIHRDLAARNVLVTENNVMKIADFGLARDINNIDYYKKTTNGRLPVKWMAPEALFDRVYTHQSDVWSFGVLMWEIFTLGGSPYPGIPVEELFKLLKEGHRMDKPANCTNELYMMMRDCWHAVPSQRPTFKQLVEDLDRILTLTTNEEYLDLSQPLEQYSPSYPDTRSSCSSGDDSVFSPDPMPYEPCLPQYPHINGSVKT
# T5 sequence (O60674 849-1124 limits assumed): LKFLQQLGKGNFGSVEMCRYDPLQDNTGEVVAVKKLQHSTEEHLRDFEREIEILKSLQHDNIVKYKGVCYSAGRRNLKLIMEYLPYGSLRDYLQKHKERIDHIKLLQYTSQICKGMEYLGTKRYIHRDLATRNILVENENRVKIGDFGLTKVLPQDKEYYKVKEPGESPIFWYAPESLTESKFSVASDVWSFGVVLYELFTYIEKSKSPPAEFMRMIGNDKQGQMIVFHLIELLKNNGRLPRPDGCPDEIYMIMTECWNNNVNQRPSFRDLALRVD
# T7 sequence (Q16539 whole entry): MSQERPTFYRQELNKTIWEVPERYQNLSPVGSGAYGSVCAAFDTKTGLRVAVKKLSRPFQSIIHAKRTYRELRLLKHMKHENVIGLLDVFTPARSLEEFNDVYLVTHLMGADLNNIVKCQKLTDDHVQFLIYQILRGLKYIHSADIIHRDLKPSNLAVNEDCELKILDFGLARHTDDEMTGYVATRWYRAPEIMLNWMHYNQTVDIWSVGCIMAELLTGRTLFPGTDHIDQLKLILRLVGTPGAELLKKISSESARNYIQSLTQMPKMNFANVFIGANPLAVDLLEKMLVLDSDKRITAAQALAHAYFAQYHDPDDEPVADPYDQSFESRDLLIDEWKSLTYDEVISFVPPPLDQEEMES
# T3 sequence (Q00535 whole entry): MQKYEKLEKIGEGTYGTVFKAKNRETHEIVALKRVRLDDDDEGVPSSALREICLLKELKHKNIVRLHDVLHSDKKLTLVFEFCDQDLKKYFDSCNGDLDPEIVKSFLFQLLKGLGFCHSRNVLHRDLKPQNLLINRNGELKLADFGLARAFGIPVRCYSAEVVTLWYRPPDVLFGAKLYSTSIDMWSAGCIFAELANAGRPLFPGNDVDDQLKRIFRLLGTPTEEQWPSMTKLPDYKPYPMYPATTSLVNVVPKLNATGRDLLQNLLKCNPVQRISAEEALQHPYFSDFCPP
# T9 sequence (Q13882 whole entry): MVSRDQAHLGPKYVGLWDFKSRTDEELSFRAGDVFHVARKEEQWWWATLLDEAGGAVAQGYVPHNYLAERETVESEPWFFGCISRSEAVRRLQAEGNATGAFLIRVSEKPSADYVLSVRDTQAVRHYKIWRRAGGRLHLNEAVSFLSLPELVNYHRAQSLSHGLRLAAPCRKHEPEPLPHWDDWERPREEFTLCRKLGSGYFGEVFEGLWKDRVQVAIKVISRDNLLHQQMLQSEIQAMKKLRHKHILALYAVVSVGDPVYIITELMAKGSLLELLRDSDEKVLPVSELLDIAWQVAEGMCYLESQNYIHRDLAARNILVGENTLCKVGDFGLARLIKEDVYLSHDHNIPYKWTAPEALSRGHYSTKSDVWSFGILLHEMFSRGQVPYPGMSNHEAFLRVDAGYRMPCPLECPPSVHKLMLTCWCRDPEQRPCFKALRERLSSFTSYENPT
# T2 sequence (P15056 whole entry V600E): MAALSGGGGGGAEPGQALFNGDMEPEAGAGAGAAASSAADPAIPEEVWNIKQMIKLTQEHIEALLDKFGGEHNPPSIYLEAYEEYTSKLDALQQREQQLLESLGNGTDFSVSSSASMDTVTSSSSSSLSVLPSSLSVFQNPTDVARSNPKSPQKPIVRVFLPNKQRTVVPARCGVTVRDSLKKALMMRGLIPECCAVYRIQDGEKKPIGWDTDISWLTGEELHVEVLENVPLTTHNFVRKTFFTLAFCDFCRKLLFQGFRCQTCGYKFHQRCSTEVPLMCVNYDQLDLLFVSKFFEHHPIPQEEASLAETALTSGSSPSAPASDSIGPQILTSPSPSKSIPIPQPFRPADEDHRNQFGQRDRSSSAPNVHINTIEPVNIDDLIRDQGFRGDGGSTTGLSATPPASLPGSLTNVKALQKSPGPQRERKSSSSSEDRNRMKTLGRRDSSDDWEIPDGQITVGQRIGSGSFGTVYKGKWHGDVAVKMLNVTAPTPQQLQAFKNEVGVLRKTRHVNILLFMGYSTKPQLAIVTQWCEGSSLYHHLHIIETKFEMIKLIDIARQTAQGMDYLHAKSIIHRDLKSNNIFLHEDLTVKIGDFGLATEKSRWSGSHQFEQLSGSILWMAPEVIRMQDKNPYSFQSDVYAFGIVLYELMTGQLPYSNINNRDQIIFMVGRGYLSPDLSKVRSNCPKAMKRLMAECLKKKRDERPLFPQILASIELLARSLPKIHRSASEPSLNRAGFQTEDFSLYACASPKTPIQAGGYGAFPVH
# T1 sequence (P15056 whole entry): as the sequence (P15056 whole entry V600E) above, with E600V counted along it
Compound,inhibition at 10 µM [1] [%],inhibition at 10 µM [2] [%],inhibition at 10 µM [3] [%],inhibition at 10 µM [4] [%],inhibition at 10 µM [5] [%],inhibition at 10 µM [6] [%],inhibition at 10 µM [7] [%],inhibition at 10 µM [8] [%],inhibition at 10 µM [9] [%],inhibition of IL-8 production in neutrophils [10],production of IL-6 ([11]; mouse air pouch fluid),production of MCP1 ([11]; mouse air pouch fluid),"neutrophil influx ([11]; mouse air pouch, compound injected into pouch)"
"NC(=O)c1ccc(-c2nc(-c3ccc4c(c3)OCCO4)c(-c3ccccn3)[nH]2)cc1 [D4476, 4-[4-(2,3-Dihydro-benzo[1,4]dioxin-6-yl)-5-pyridin-2-yl-1H-imidazol-2-yl]benzamide]",< 50,< 50,< 50,< 50,< 50,< 50,< 50,< 50,< 50,,,,
"NC(=O)c1ccc(-c2nc(-c3ccc4c(c3)OCO4)c(-c3ccccn3)[nH]2)cc1 [SB431542, 4-(4-benzo-[1,3]dioxol-5-yl-5-pyridin-2-yl-1H-imidazol-2-yl)benzamide]",,,< 50,< 50,< 50,< 50,< 50,< 50,< 50,dose-dependent inhibition,inhibited,inhibited,inhibited
